Here are results for four compounds from ChEMBL document CHEMBL6078686, “Synthesis of 1-Hydroxy(and 1-Alkoxy, 1-Acyloxy)-1H-indoles and evaluations of their suppressive activities against tumor growth through inhibiting lactate dehydrogenase A” (Eur J Med Chem, 2025).

Active and inactive are the calls of the source. No cut-off for these calls is given here.

In one data set the test system is PANC-1. The data set can be described thus: Cytotoxicity against human PANC-1 cells assessed as inhibition of cell growth measured after 48 hrs incubation by MTT assay. The data set is classed as functional. In general terms: Tetrazolium dyes change colour on reduction, which living cells bring about.
For a further data set, the system named is U-87 MG. In words: Cytotoxicity against human U87 cells assessed as inhibition of cell growth measured after 48 hrs incubation by MTT assay. It counts as functional, U-87MG ATCC.
The subject of a further data set is HeLa. The data set can be described thus: Cytotoxicity against human HeLa cells assessed as inhibition of cell growth measured after 48 hrs incubation by MTT assay. The data set is classed as functional.
In a further data set the test system is MCF7. The data set can be described thus: Cytotoxicity against human MCF7 cells assessed as inhibition of cell growth measured after 48 hrs incubation by MTT assay. It counts as functional.
Data set [1] has as its target T1, L-lactate dehydrogenase A chain (Homo sapiens, UniProt P00338). The data set can be described thus: Inhibition of human recombinant LDHA assessed as conversion of NADH […] at by spectrofluorometry.
The test system of data set [2] is DLD-1. In words: Cytotoxicity against human DLD-1 cells assessed as inhibition of cell growth measured after 48 hrs incubation by MTT assay. The data set is classed as functional.
The nature of data set [3]: Cytotoxicity against human T HESCs cells assessed as inhibition of cell growth measured after 48 hrs incubation by MTT assay. It counts as toxicity, cell-based.
The nature of data set [4]: Cytotoxicity against mouse AML12 cells assessed as inhibition of cell growth measured after 48 hrs incubation by MTT assay. It counts as toxicity, cell-based.
The next data set concerns A549. The data set can be described thus: Cytotoxicity against human A549 cells assessed as inhibition of cell growth measured after 48 hrs incubation by MTT assay. It counts as functional.
Data set [5] in a line: Cytotoxicity against mouse Hepa1-6 cells assessed as inhibition of cell growth measured after 48 hrs incubation by MTT assay. It counts as toxicity, cell-based, Hepa 1-6.
In data set [6] the target is T1, L-lactate dehydrogenase A chain. The data set can be described thus: Inhibition of intracellular LDHA activity in human DLD-1 cell lysate assessed as conversion of NADH […] by spectrofluorometry. The data set is classed as subcellular.
Data set [7] shares this target. The data set can be described thus: Non-competitive inhibition of human recombinant LDHA assessed as ratio of Km/Vmax in presence of pyruvate by measuring NADH fluorescence at 160 nM by Lineweaver-Burk plot analysis.
Data set [8] has the same target. The data set can be described thus: Non-competitive inhibition of human recombinant LDHA assessed as ratio of Km/Vmax in presence of pyruvate by measuring NADH fluorescence at 40 nM by Lineweaver-Burk plot analysis.
Data set [9] has as its system COC(=O)c1c(COCCc2ccccc2)c2c(Br)cccc2n1OC. In words: Non-competitive inhibition of human recombinant LDHA assessed as Vmax in presence of pyruvate by measuring NADH fluorescence at 40 nM by Lineweaver-Burk plot analysis.
For data set [10] the test system is unchanged. In words: Non-competitive inhibition of human recombinant LDHA assessed as Vmax in presence of pyruvate by measuring NADH fluorescence at 160 nM by Lineweaver-Burk plot analysis.
The test system of data set [11] is CCCCCCOCc1c(C(=O)OC)n(O)c2cccc(Br)c12. In words: Non-competitive inhibition of human recombinant LDHA assessed as Vmax in presence of pyruvate by measuring NADH fluorescence at 25 nM by Lineweaver-Burk plot analysis.
Data set [12] deals with COC(=O)c1c(COCCc2ccccc2)c2c(Br)cccc2n1OC. In words: Non-competitive inhibition of human recombinant LDHA assessed as Km in presence of pyruvate by measuring NADH fluorescence at 40 nM by Michaelis-Menten analysis.
The test system is the same in data set [13]. The data set can be described thus: Non-competitive inhibition of human recombinant LDHA assessed as Km in presence of pyruvate by measuring NADH fluorescence at 160 nM by Michaelis-Menten analysis.
The subject of data set [14] is CCCCCCOCc1c(C(=O)OC)n(O)c2cccc(Br)c12. In words: Non-competitive inhibition of human recombinant LDHA assessed as Km in presence of pyruvate by measuring NADH fluorescence at 100 nM by Michaelis-Menten analysis.
Data set [15] has the same test system. The data set can be described thus: Non-competitive inhibition of human recombinant LDHA assessed as Km in presence of pyruvate by measuring NADH fluorescence at 25 nM by Michaelis-Menten analysis.
The test system is the same in data set [16]. In words: Non-competitive inhibition of human recombinant LDHA assessed as Vmax in presence of pyruvate by measuring NADH fluorescence at 100 nM by Lineweaver-Burk plot analysis.
Data set [17] in a line: Toxicity in male athymic mouse subcutaneously inoculated with human DLD-1 cells assessed as injury/inflammation in liver at 5 to 25 mg/kg abdominally injected daily for 2 weeks after 15 days of tumor injection measured after 2 weeks. The data set is classed as organism-based. The conditions noted are these: in vivo, 336 h, dose 5-25 mg/kg.
Data set [18] concerns DLD-1. In words: In vivo tumor suppressor activity against human DLD-1 cells subcutaneously implemented in male athymic mouse model assessed as reduction in tumor volume at 5 to 25 mg/kg abdominally injected daily for 2 weeks after 15 days of tumor injection measured after 2 weeks. The data set is classed as functional, organism-based. The conditions noted are these: dose 5-25 mg/kg.

For data set [19], the system named is DLD-1. In words: Induction of apoptosis in human DLD-1 cells assessed as PARP at 20 to 40 uM measured after 48 hrs by Western blot analysis. It counts as functional, cell-based. Conditions: dose 20-40 µM. For orientation: Immunoblotting shows a protein as a band on a membrane.
Data set [20] relates to DLD-1. The data set can be described thus: Induction of apoptosis in human DLD-1 cells assessed as caspase 3 at 20 to 40 uM measured after 48 hrs by Western blot analysis. It counts as functional, cell-based. The conditions noted are these: dose 20-40 µM.
The subject of data set [21] is DLD-1. The data set can be described thus: In vivo tumor suppressor activity against human DLD-1 cells subcutaneously implemented in male athymic mouse model assessed as caspase 3 activation in tumor tissue at 25 mg/kg abdominally injected daily for 2 weeks after 15 days of tumor injection measured after 2 weeks. It counts as functional, organism-based.
Data set [22] deals with DLD-1. In words: In vivo tumor suppressor activity against human DLD-1 cells subcutaneously implemented in male athymic mouse model assessed as reduction in tumor weight at 5 to 25 mg/kg abdominally injected daily for 2 weeks after 15 days of tumor injection measured after 2 weeks. The data set is classed as functional, organism-based. Conditions: dose 5-25 mg/kg.
Data set [23] has as its target T1, L-lactate dehydrogenase A chain. The data set can be described thus: Non-competitive inhibition of human recombinant LDHA assessed as ratio of Km/Vmax in presence of pyruvate by measuring NADH fluorescence at 100 nM by Lineweaver-Burk plot analysis.
The target is the same in data set [24]. The data set can be described thus: Non-competitive inhibition of human recombinant LDHA assessed as ratio of Km/Vmax in presence of pyruvate by measuring NADH fluorescence at 25 nM by Lineweaver-Burk plot analysis.
A short description of data set [25]: Toxicity in male athymic mouse subcutaneously inoculated with human DLD-1 cells assessed as injury/inflammation in kidney at 5 to 25 mg/kg abdominally injected daily for 2 weeks after 15 days of tumor injection measured after 2 weeks. It counts as organism-based. Conditions: in vivo, 336 h, dose 5-25 mg/kg.
The subject of data set [26] is DLD-1. The data set can be described thus: Induction of apoptosis in human DLD-1 cells assessed as caspase 9 at 20 to 40 uM measured after 48 hrs by Western blot analysis. Conditions: dose 20-40 µM. It counts as functional, cell-based.
A short description of data set [27]: Toxicity in male athymic mouse subcutaneously inoculated with human DLD-1 cells assessed as weight loss at 5 to 25 mg/kg abdominally injected daily for 2 weeks after 15 days of tumor injection measured after 2 weeks. The conditions noted are these: in vivo, 336 h, dose 5-25 mg/kg. It counts as organism-based.

`COC(=O)c1c(COCCc2ccccc2)c2c(Br)cccc2n1OC`: the GI50 (in general, the concentration at which growth is held to half of that of the control) in the data set with PANC-1 was greater than 100 µM; in the data set on U-87 MG, 66.7 µM; in the data set on HeLa it was 83.5 µM; in the data set on MCF7, greater than 100 µM; in the data set with DLD-1 [2] it was greater than 100 µM; in the data set on A549, greater than 100 µM. In addition, the half-inhibitory concentration (IC50) (as a rule, the concentration at which inhibition is half-maximal) in [1] stood at 0.124 µM. Besides, the inhibition entry in data set [1] was “Dose-dependent-effect”. Moreover, the GI50 at 48 h in data set [3] is greater than 100 µM; in data set [4], 85.2 µM; in data set [5] it was 56.2 µM. Besides, the inhibition entry in data set [6] is “inactive”. Besides, the Vmax/Km in data set [7] was determined as 0.038; in data set [8], 0.029.

For “L-lactate dehydrogenase A chain (Homo sapiens) (from UniProt P00338)”, the Vmax was found to be 5.84 in data set [9], 5.01 in data set [10], 4.54 in data set [11] and 3.6 in [16]. In addition, the Km (in general, the substrate concentration at which the rate is half of its maximum) in data set [12] came to 172 µM; in data set [13], 189 µM; in data set [14] it was 170 µM; in data set [15] it was 254 µM.

Turning to `COC(=O)c1cc2c(C(F)(F)F)cc(-c3ccccc3)cc2n1O`, in the data set on DLD-1 [2], the concentration for 50% growth inhibition (GI50) worked out at 106 µM.

In the case of `CCCCCCOCc1c(C(=O)OC)n(O)c2cccc(Br)c12`, the concentration for 50% growth inhibition (GI50) in the data set with PANC-1 worked out at 31.4 µM; in the data set with U-87 MG, 60.9 µM; in the data set on HeLa it was 39.6 µM; in the data set on MCF7, 31.7 µM; with DLD-1 [2] it was 27 µM; with A549, 45.6 µM. The Activity result in data set [17], in data set [25] and in data set [27] was “Non-toxic” in each case. The result with DLD-1 [18], with DLD-1 [19], with DLD-1 [20], in the data set on DLD-1 [21], in the data set on DLD-1 [22] and with DLD-1 [26] was Active. Moreover, the IC50 is 0.025 µM in data set [1] and 11.6 µM in data set [6]. The inhibition entry in data set [1] and in data set [6] was “Dose-dependent-effect” each time. Moreover, the 50% growth inhibitory concentration (GI50) at 48 h in data set [3] is greater than 100 µM; in data set [4], greater than 100 µM; in [5], 49.6 µM. For the same compound, the Vmax/Km turned out to be 0.047 in data set [23] and 0.056 in data set [24].
